Experimental data reported in ChEMBL document CHEMBL3507680, “University of Dundee, Gates Library screen for HepG2 cell viability”.

Assay: Human HepG2 cell viability assay in 384 well format
Format: toxicity, cell-based
Set-up: dose 125 nL, time 70.5 hour; cytotoxicity at 70.5 h: concentration not given beside the values
Conditions: HepG2 cells, read-out: Inhibition

Compound | cytotoxicity at 70.5 h
CCCNC(=O)C1CCN(CC2(O)CCC(C)CC2)CC1 (stereo not drawn) | -3.07%
CC1CCC(O)(CN2CCN(CCNC(=O)C3CCC3)CC2)CC1 (stereo not drawn) | -14.6%
O=C(NS(=O)(=O)c1cnn(-c2ccccc2F)c1)c1ccco1 | 1.58%
CC(C)c1cnc(CN2C(=O)CC3(CCSC3)C2=O)o1 (stereo not drawn) | -3.08%
Nc1nccnc1C(=O)N(Cc1ccco1)CC1CCCO1 (stereo not drawn) | -2.09%
CC(C)(C)c1cnc(CN2C(=O)CC3(CCSC3)C2=O)o1 (stereo not drawn) | -4.79%
CCOc1ccc(NC(=O)N(CCC#N)Cc2ccccn2)cc1F | 12%
COCCCNC(=O)C1CCN(CC2(O)CCC(C)CC2)CC1 (stereo not drawn) | -3.99%
CC(c1ccccc1)N(C)C(=O)CN1CCCc2cccc(F)c21 (stereo not drawn) | 0.621%
CC(C)c1noc(CN(C)C(c2ccc(F)cc2)c2cccnc2)n1 (stereo not drawn) | 10.2%
Cc1ncsc1CN(C)C(=O)C(CC(C)C)N1CCCCC1=O (stereo not drawn) | -2.15%
COCCNC(=O)c1nn(-c2cccc(C(C)C)c2)cc1O | 41.1%
Cc1noc(C)c1CN(C)CC(=O)/N=c1\cc[nH]n1C(C)C1CC1 (stereo not drawn) | 22.1%
COCc1nc(CNc2cccc(-c3ncon3)c2)cs1 | 29.2%
CCN(C(=O)CN1CCCC1c1ccc(OC)cc1)c1ccccc1C (stereo not drawn) | -0.0656%
Cc1sc2nc(SC(C)c3nc(C(C)C)no3)nc(N)c2c1C (stereo not drawn) | 3.75%
Cn1cc(CNC(=O)C2COCC(=O)N2Cc2ccccc2)cn1 (stereo not drawn) | 2.62%
CC(C)CCN(C(=O)c1cc2c([nH]c1=O)CCCC2=O)C1CC1 | -2.36%
COc1c(C)cnc(CNC(=O)CCc2nc3ccccc3[nH]2)c1C | -3.14%
Cc1occc1C(=O)N1CCC(C(O)c2ccc(Cl)cc2)CC1 (stereo not drawn) | 5.5%
CCc1cnc(CN2CCOC(c3nc(C)n[nH]3)C2)o1 (stereo not drawn) | -7.69%
CNC(=O)c1csc(-c2ccoc2)n1 | -4.01%
O=c1[nH]nc(CNc2cncc(Br)c2)[nH]1 | 29.9%
CC(C)Cc1ccc(S(=O)(=O)NCCCN2CCNC(=O)C2)cc1 | -3.66%

Compound | cytotoxicity at 70.5 h
CN(C)C(=O)CN1CCCc2c(F)cc(Br)cc21 | -2.61%
COc1ccccc1OCCC(=O)NCc1ncc(C)c(OC)c1C | -4.64%
COCCN(CCN(C)C)C(=O)NC1CC1 | -2.74%
COC(=O)c1cccc(CNC(=O)c2cc(C(C)C)n(C)n2)c1 | 27.4%
CC(Cn1cccn1)NCCS(=O)(=O)c1ccccc1 (stereo not drawn) | -8.75%
CC(Cn1cccn1)NCCS(=O)(=O)c1ccc(Cl)cc1 (stereo not drawn) | -9.68%
COc1ccc2c(c1)C(NCCc1c(C)noc1C)CCCO2 (stereo not drawn) | 29.3%
O=C(CN1CCCc2c(F)cc(Br)cc21)N1CCCC1 | 3.5%
CN(CC(O)C1CC1)C(=O)c1ccc(-c2nc(C3CC3)no2)cc1 (stereo not drawn) | 2.53%
COc1cccc(S(=O)(=O)CCNCCn2cccn2)c1 | -10.6%
CC(=O)N(c1ccc(C)cc1)c1nc(CN2CCCCC2C)cs1 (stereo not drawn) | 16.8%
CNS(=O)(=O)CCCN1CCN(C(C)c2cccnc2)CC1 (stereo not drawn) | 18.3%
COc1ccc(CCNC(=O)CC(NC(N)=O)c2ccccc2)cc1 (stereo not drawn) | 14.7%
Cc1nnc(NC(=O)NC(C)C(=O)NC2CCCC2)s1 (stereo not drawn) | -3.86%
CN(C)C(=O)CCNC(=O)NCc1ccc(Br)cc1Cl | 17.2%
CC(=O)NCCNC(=O)NCc1ccc(Br)cc1Cl | -0.47%
CC(=O)N(c1ccc(F)cc1)c1nc(CN2CCCC2C(C)C)cs1 (stereo not drawn) | 24.7%
O=C(CN1CCN(CCO)CC1)NCc1ccc(Cl)s1 | -1.03%
N#Cc1cc(N2CCC(S(N)(=O)=O)CC2)c2ccccc2n1 | -2.54%
N#Cc1cc(N2CCC(CS(N)(=O)=O)CC2)nc2ccccc12 | 1.54%
N#Cc1cc(N2CCC(CS(N)(=O)=O)CC2)c2ccccc2n1 | 14.9%
CSc1nc(C2CC2)nc(C)c1C(=O)NCc1cc(C)on1 | -0.104%
O=C(c1ccc[nH]1)N1CCCC1c1nc(-c2ccccc2)n[nH]1 (stereo not drawn) | -1.48%
COC(=O)CN(Cc1ccccc1C)C(=O)C1CCC1 | 8.03%

Compound | cytotoxicity at 70.5 h
CCOCCS(=O)(=O)N(CC)Cc1ccc(Cl)s1 | -11.4%
O=S(=O)(NCCc1c[nH]c2ccc(F)cc12)C1CCOCC1 | -16%
CC(Nc1ccc(CCN2CCCCC2)cc1)C(=O)N(C)CCC#N (stereo not drawn) | -6.46%
CN(C(=O)c1ccc(OCC(F)F)nc1)c1ccc2c(c1)CCO2 | -4.77%
COC(=O)CN(Cc1ccccc1C)C(=O)CCCNC(=O)C1CC1 | 10.1%
Cc1ccc(NC(=O)CCc2ccco2)cc1N1CCOC1=O | -10.1%
CCCc1nnc(NC(=O)N2CCCC(NC(C)=O)C2)s1 (stereo not drawn) | -4.43%
COc1ccc(S(=O)(=O)Cc2cc(C)on2)cc1 | -4.34%
COc1cccc(S(=O)(=O)Cc2cc(C)on2)c1 | -3.06%
Cc1cc(CS(=O)(=O)c2ccccc2)no1 | -5.49%
Cc1nc(NC(=O)C(C)S(C)(=O)=O)sc1Cc1ccccc1F (stereo not drawn) | -7.43%
COC(=O)N1CCC(NC(=O)CC(C)CCc2ccccc2)CC1 (stereo not drawn) | -14%
CC(CCc1ccccc1)CC(=O)NC1CCN(CC(N)=O)CC1 (stereo not drawn) | 0.475%
COc1ccnc(N2CCN(C(=O)CCc3cnn(C)c3)CC2)n1 | -11.9%
COc1cc(OC)c(CNC(=O)NCC(=O)N(C)C)c(OC)c1 | 1.38%
NC(=O)C1CCCN1Cc1ccccc1NC(=O)Cc1cccs1 (stereo not drawn) | 13%
N#Cc1ccc(NC2CCN(c3ncccn3)CC2)cc1C(F)(F)F | 5.96%
CCNC(=O)CCC(=O)Nc1nc(C)c(Cc2ccc(F)cc2)s1 | -1.26%
CSCCC(C)NC(=O)CCN1C(=O)CCc2cc(F)ccc21 (stereo not drawn) | -4.19%
Cc1ccc(C(=O)NS(C)(=O)=O)cc1I | 16.8%
Cc1cc(NC(N)=O)ccc1C(=O)N(C)C | 4.17%
CC(O)CNc1nc(-c2cccnc2)nc2c1CCC2 (stereo not drawn) | 0.874%
Cn1ncnc1NS(=O)(=O)c1ccccc1 | 6.82%
CC(C)C(C)NC(=O)CCN1C(=O)CCc2cc(F)ccc21 (stereo not drawn) | 19.4%

Compound | cytotoxicity at 70.5 h
Cc1cc(C)nc(NC2CCOC3(CCCC3)C2)n1 (stereo not drawn) | 3.01%
CCOC(=O)CN1CCC(NC(=O)OC(C)(C)C)CC1 | 14.9%
CCOC(C)c1noc(CN(C)C(=O)C2C(C)(C)C2(C)C)n1 (stereo not drawn) | -2.89%
Cc1cc(NCC(C)C)ccc1C(=O)N(C)C | 13.4%
Cc1nsc(NC2CCOC3(CCCC3)C2)n1 (stereo not drawn) | -1.21%
CCN(c1ccc(C(=O)N(Cc2cnn(C)c2)C(C)C)cn1)C(C)C | -24.7%
CC(C)NC(=O)CCCn1cnc2ccccc2c1=O | 16.8%
CC(C)COC(C)C(=O)NCCNC(=O)C(C)C (stereo not drawn) | -1.79%
O=C(CCCNC(=O)C1CCCO1)Nc1ccc(Cl)cc1 (stereo not drawn) | 17.1%
Cc1csc(CNC(=O)NCC2(c3ccc4c(c3)OCO4)CC2)n1 | -2.06%
CN(CCCc1cc(-c2ccc(F)cc2)n(C)n1)CC(N)=O | -11.3%
Cc1cc(CN2CCN(c3ccnc(-c4ccccc4)n3)CC2)no1 | -4.67%
CC(C(N)=O)N(C)CCCc1cc(-c2ccc(F)cc2)n(C)n1 (stereo not drawn) | -9.74%
O=C(NCCNS(=O)(=O)C1CCCCC1)c1ccccc1 | -10.7%
COCCn1ccc(NCc2cc3cc(F)ccc3o2)n1 | -6.3%
CC(C)c1nncn1CCNC(=O)c1ccc(Cl)cc1O | 0.918%
Cc1cc(C(=O)N2CCCS2(=O)=O)c(C)o1 | -9.77%
Cc1cc(C(=O)N2CCS(=O)(=O)CC2)c(C)o1 | -2.07%
CCOc1ccc(CN(CCC#N)CCN2CCOCC2)cc1OC | -0.151%
COc1ccc(OC)c(CNc2nnc(C(C)(C)C)o2)c1 | -12.4%
COc1cccc(C2CN(CCc3ccncc3)CCO2)c1 (stereo not drawn) | -6.16%
CCCS(=O)(=O)NCCc1ncc(CC)s1 | -0.431%
COc1ccc(CN(CCC#N)CCN2CCOCC2)c(OC)c1 | -4.65%
CN1CCC(NCC(O)c2cccc(OCc3ccccc3)c2)CC1 (stereo not drawn) | 4.18%

Compound | cytotoxicity at 70.5 h
Cc1ncc(CNCC2CCC(C(N)=O)CC2)n1-c1ccccc1 (stereo not drawn) | 11.9%
Cc1ccccc1C(=O)NC1CCN(Cc2ncc(C(C)(C)C)o2)CC1 | -0.562%
O=C(CSCc1ccncc1)N(Cc1ccsc1)C1CC1 | 0.347%
COc1ccc(CNC(=O)c2ccc(Br)cn2)cc1 | 13.3%
COC(=O)CNC(=O)C12CCC(=O)N1c1cc(Cl)ccc1S2 (stereo not drawn) | -1.84%
CCc1noc(CN(CC(=O)N2CCCCC2)c2ccc(C)cc2)n1 | -1.63%
Nc1cc2c(nn1)CCN(C(=O)c1csc(-c3ccccc3)n1)C2 | -1.92%
CC(C)(C)c1cnc(CN2CCC(NC(=O)CC3CCCC3)CC2)o1 | 14%
Cc1ncc(C(=O)NC2CCN(CCOc3ccc(Br)cc3)CC2)s1 | -4.58%
O=C(CCc1cccc(Cl)c1)NS(=O)(=O)Cc1ccon1 | 1.74%
O=C(CCc1ccco1)NS(=O)(=O)Cc1ccon1 | -3.83%
COCCNC(=O)c1nc(-c2cn(C)cn2)n2ccccc12 | -7.59%
O=C(c1cscn1)N1C[C@H]2CCC[C@@]2(COCc2ccccn2)C1 | -6.34%
CCS(=O)(=O)N1CCCn2nnc(CNC(C)=O)c2C1 | 7.38%
O=C([C@H]1C[C@@H]2CN(c3ncc(F)cn3)C[C@H]1O2)N1CCCC1 | -9.42%
c1cnc(N2CCOCC3(C2)CN(c2nccs2)CCO3)nc1 (stereo not drawn) | -7.1%
CS(=O)(=O)CC(=O)N1C[C@H]2CCC[C@@]2(COc2ccccn2)C1 | 12.7%
CS(=O)(=O)CC(=O)N1C[C@H]2CCC[C@@]2(COCc2ccncc2)C1 | -3.98%
NC(=O)CC1CC2(CCNCC2)c2cc(F)ccc21 (stereo not drawn) | -7.94%
COCC1CC2(CCN(c3cc(OC)ncn3)CC2)CN1C(C)C (stereo not drawn) | -8.64%
Cn1cc(CNC2CCc3c(ccc(=O)n3Cc3ccncc3)C2)cn1 (stereo not drawn) | -15.3%
CCCN1CCC2(CC1)CN(C(=O)c1cccnc1)c1ccc(F)cc12 | -8.65%
